Key:
[1] = test system: wildtype Wnt signaling cascade; test: HEK293 TOP assay (Super TopFlash luciferase reporter, Wnt-3a stimulated); type: cell-based; settings: Homo sapiens, HEK293, 16 h, HEK293 TOP reporter cells, Wnt3a at EC50, 16 hours
In short: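 HEK293 cells stably carrying Super TopFlash (TOP) run in parallel with FOP cells, 10000/well plated 24 h ahead, stimulated with recombinant human Wnt-3a. Compounds tested 50 μM to 15 nM in 3.16-fold steps in CAFTY buffer pH 7.4 with 2 mM Ca^2+ and 0.01% BSA; luciferase read-out.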

[2] = target: T1, TNKS1 (Homo sapiens, UniProt O95271); test: TNKS1 Assay B (auto-parsylation, [3H]-NAD+ SPA); type: biochemical; settings: 6 nM TNKS1, auto-parsylation, over night at room temperature
T1 construct: purchased BPS Bioscience, San Diego, USA 80579 (TNKS1 Histone Ribosylation Assay Kit)
T1 sequence (O95271 1-1327): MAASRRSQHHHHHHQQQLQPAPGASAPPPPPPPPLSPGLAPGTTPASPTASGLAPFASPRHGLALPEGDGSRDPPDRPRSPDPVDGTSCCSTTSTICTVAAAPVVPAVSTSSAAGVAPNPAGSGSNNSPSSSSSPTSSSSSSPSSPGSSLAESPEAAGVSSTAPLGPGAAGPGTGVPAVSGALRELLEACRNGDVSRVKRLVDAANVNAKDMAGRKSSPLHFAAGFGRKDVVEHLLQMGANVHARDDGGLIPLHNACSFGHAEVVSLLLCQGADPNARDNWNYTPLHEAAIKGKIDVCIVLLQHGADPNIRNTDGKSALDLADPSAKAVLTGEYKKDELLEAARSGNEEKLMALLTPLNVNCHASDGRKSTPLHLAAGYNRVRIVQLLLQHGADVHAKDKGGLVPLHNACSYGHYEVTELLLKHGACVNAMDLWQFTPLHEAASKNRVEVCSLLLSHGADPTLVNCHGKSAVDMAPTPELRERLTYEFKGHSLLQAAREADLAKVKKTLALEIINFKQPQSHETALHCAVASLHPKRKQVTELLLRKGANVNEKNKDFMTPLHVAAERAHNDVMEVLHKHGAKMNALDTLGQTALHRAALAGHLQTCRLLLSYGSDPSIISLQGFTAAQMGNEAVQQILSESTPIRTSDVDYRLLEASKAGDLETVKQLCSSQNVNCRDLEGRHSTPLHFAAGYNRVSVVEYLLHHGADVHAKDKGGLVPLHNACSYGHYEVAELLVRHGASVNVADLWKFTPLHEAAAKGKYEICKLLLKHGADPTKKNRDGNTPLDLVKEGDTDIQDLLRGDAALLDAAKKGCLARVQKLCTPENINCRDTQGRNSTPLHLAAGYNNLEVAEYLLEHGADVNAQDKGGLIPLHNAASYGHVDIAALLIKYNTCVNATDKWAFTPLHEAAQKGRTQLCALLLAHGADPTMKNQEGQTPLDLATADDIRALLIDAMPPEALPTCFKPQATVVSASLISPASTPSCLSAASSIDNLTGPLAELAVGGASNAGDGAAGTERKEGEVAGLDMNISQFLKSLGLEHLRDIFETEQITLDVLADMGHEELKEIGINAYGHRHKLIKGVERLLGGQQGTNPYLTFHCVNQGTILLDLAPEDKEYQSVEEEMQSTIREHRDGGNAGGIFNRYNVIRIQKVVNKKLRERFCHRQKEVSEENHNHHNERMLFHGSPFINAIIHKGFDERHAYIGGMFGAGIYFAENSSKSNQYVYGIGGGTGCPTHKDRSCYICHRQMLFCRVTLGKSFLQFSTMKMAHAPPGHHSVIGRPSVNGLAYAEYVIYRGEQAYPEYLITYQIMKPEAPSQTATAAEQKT

## O=C(NC1CCC2(CC1)CCN(c1cc(F)c(F)cc1Cl)C2=O)c1cnn2cccnc12 (single isomer, unassigned; isomer 1) [Example 168, N-[2-(2-chloro-4,5-difluorophenyl)-1-oxo-2-azaspiro[4.5]dec-8-yl]pyrazolo[1,5-a]pyrimidine-3-carboxamide (isomer 1)]
[1]
  IC50: 0.23 nM
[2]
  IC50: 7.3 nM

## CNC(=O)c1nc[nH]c1C(=O)N[C@H]1CC[C@H](C(=O)Nc2cccnc2Cl)CC1 [Example 10, N^5-{trans-4-[(2-chloropyridin-3-yl)carbamoyl]cyclohexyl}-N^4-methyl-1H-imidazole-4,5-dicarboxamide]
[1]
  IC50: 90 nM
[2]
  IC50: 250 nM

## CNC(=O)c1nc[nH]c1C(=O)N[C@H]1CC[C@H](C(=O)Nc2ccncc2Cl)CC1 [Example 11, N^5-{trans-4-[(3-chloropyridin-4-yl)carbamoyl]cyclohexyl}-N^4-methyl-1H-imidazole-4,5-dicarboxamide]
[1]
  IC50: 140 nM
[2]
  IC50: 260 nM

## CC1CCN(CCNC(=O)c2nc[nH]c2C(=O)N[C@H]2CC[C@H](C(=O)Nc3ccc(F)cc3Cl)CC2)CC1 [Example 12, N^5-{trans-4-[(2-chloro-4-fluorophenyl)carbamoyl]cyclohexyl}-N^4-[2-(4-methylpiperidin-1-yl)ethyl]-1H-imidazole-4,5-dicarboxamide]
[1]
  IC50: 72 nM
[2]
  IC50: 3.7 nM

## O=C(NCCN1CCOCC1)c1nc[nH]c1C(=O)N[C@H]1CC[C@H](C(=O)Nc2ccc(F)cc2Cl)CC1 [Example 13, N^5-{trans-4-[(2-chloro-4-fluorophenyl)carbamoyl]cyclohexyl}-N^4-[2-(morpholin-4-yl)ethyl]-1H-imidazole-4,5-dicarboxamide]
[1]
  IC50: 95 nM
[2]
  IC50: 10 nM

## O=C(N[C@H]1CC[C@H](C(=O)Nc2ccc(F)cc2Cl)CC1)c1[nH]cnc1C(=O)N1CC2(COC2)C1 [Example 14, N-{trans-4-[(2-chloro-4-fluorophenyl)carbamoyl]cyclohexyl}-4-(2-oxa-6-azaspiro[3.3]hept-6-ylcarbonyl)-1H-imidazole-5-carboxamide]
[1]
  IC50: 120 nM
[2]
  IC50: 63 nM

## CCNC(=O)c1nc[nH]c1C(=O)N[C@H]1CC[C@H](C(=O)Nc2ccc(F)cc2Cl)CC1 [Example 15, N^5-{trans-4-[(2-chloro-4-fluorophenyl)carbamoyl]cyclohexyl}-N^4-ethyl-1H-imidazole-4,5-dicarboxamide]
[1]
  IC50: 71 nM
[2]
  IC50: 52 nM

## CN(C)C(=O)c1nc[nH]c1C(=O)N[C@H]1CC[C@H](C(=O)Nc2ccc(F)cc2Cl)CC1 [Example 16, N^5-{trans-4-[(2-chloro-4-fluorophenyl)carbamoyl]cyclohexyl}-N^4,N^4-dimethyl-1H-imidazole-4,5-dicarboxamide]
[1]
  IC50: 1400 nM
[2]
  IC50: 1100 nM

## O=C(NC1CC1)c1nc[nH]c1C(=O)N[C@H]1CC[C@H](C(=O)Nc2ccc(F)cc2Cl)CC1 [Example 17, N^5-{trans-4-[(2-chloro-4-fluorophenyl)carbamoyl]cyclohexyl}-N^4-cyclopropyl-1H-imidazole-4,5-dicarboxamide]
[1]
  IC50: 49 nM
[2]
  IC50: 84 nM

## O=C(NCCO)c1nc[nH]c1C(=O)N[C@H]1CC[C@H](C(=O)Nc2ccc(F)cc2Cl)CC1 [Example 18, N^5-{trans-4-[(2-chloro-4-fluorophenyl)carbamoyl]cyclohexyl}-N^4-(2-hydroxyethyl)-1H-imidazole-4,5-dicarboxamide]
[1]
  IC50: 150 nM
[2]
  IC50: 94 nM

## COCCNC(=O)c1nc[nH]c1C(=O)N[C@H]1CC[C@H](C(=O)Nc2ccc(F)cc2Cl)CC1 [Example 19, N^5-{trans-4-[(2-chloro-4-fluorophenyl)carbamoyl]cyclohexyl}-N^4-(2-methoxyethyl)-1H-imidazole-4,5-dicarboxamide]
[1]
  IC50: 89 nM
[2]
  IC50: 120 nM

## CC(C)NC(=O)c1nc[nH]c1C(=O)N[C@H]1CC[C@H](C(=O)Nc2ccc(F)cc2Cl)CC1 [Example 20, N^5-{trans-4-[(2-chloro-4-fluorophenyl)carbamoyl]cyclohexyl}-N^4-isopropyl-1H-imidazole-4,5-dicarboxamide]
[1]
  IC50: 220 nM
[2]
  IC50: 90 nM

## O=C(NCC(F)(F)F)c1nc[nH]c1C(=O)N[C@H]1CC[C@H](C(=O)Nc2ccc(F)cc2Cl)CC1 [Example 21, N^5-{trans-4-[(2-chloro-4-fluorophenyl)carbamoyl]cyclohexyl}-N^4-(2,2,2-trifluoroethyl)-1H-imidazole-4,5-dicarboxamide]
[1]
  IC50: 79 nM
[2]
  IC50: 37 nM

## O=C(N[C@H]1CC[C@@]2(CCN(c3ccc(F)cc3Cl)C2=O)CC1)c1[nH]cnc1C(=O)N1CCN(CC(F)(F)F)CC1 [Example 167, N-[(trans)-2-(2-chloro-4-fluorophenyl)-1-oxo-2-azaspiro[4.5]dec-8-yl]-4-{[4-(2,2,2-trifluoroethyl)piperazin-1-yl]carbonyl}-1H-imidazole-5-carboxamide]
[1]
  IC50: 130 nM
[2]
  IC50: 660 nM

## Cc1cc(C)n2ncc(C(=O)N[C@H]3CC[C@H](C(=O)Nc4cnccc4Cl)CC3)c2n1 [Example 169, N-{trans-4-[(4-chloropyridin-3-yl)carbamoyl]cyclohexyl}-5,7-dimethylpyrazolo[1,5-a]pyrimidine-3-carboxamide]
[1]
  IC50: 33 nM
[2]
  IC50: 35 nM

## CNC(=O)c1nc[nH]c1C(=O)N[C@H]1CC[C@H](C(=O)Nc2cc(C(C)(C)O)ccc2Cl)CC1 [Example 170, N^5-(trans-4-{[2-chloro-5-(2-hydroxypropan-2-yl)phenyl]carbamoyl}cyclohexyl)-N^4-methyl-1H-imidazole-4,5-dicarboxamide]
[1]
  IC50: 2000 nM
[2]
  IC50: 2400 nM

## CNC(=O)c1nc[nH]c1C(=O)N[C@H]1CC[C@H](C(=O)N(C)c2ccccc2)CC1 [Example 171, N^4-methyl-N^5-{trans-4-[methyl(phenyl)carbamoyl]cyclohexyl}-1H-imidazole-4,5-dicarboxamide]
[1]
  IC50: 450 nM
[2]
  IC50: 400 nM

## CNC(=O)c1nc[nH]c1C(=O)N[C@H]1CC[C@H](C(=O)N(C)c2ccc(F)cc2)CC1 [Example 172, N^5-{trans-4-[(4-fluorophenyl)(methyl)carbamoyl]cyclohexyl}-N^4-methyl-1H-imidazole-4,5-dicarboxamide]
[1]
  IC50: 410 nM
[2]
  IC50: 980 nM

## CNC(=O)c1nc[nH]c1C(=O)N[C@H]1CC[C@H](C(=O)N(C)c2ccc(F)cc2Cl)CC1 [Example 173, N^5-{trans-4-[(2-chloro-4-fluorophenyl)(methyl)carbamoyl]cyclohexyl}-N^4-methyl-1H-imidazole-4,5-dicarboxamide]
[1]
  IC50: 190 nM
[2]
  IC50: 200 nM

## Cc1cc(N(C)C(=O)[C@H]2CC[C@H](NC(=O)c3cnn4cccnc34)CC2)c(Cl)cc1F [Example 176, N-{trans-4-[(2-chloro-4-fluoro-5-methylphenyl)(methyl)carbamoyl]cyclohexyl}pyrazolo[1,5-a]pyrimidine-3-carboxamide]
[1]
  IC50: 350 nM
[2]
  IC50: 160 nM

## O=C(N[C@H]1CC[C@H](C(=O)N(CC2CC2)c2ccc(F)cc2Cl)CC1)c1cnn2cccnc12 [Example 177, N-{trans-4-[(2-chloro-4-fluorophenyl)(cyclopropylmethyl)carbamoyl]cyclohexyl}pyrazolo[1,5-a]pyrimidine-3-carboxamide]
[1]
  IC50: 71 nM
[2]
  IC50: 13 nM
